From paper PMC12073402, “A Selective MAP3K1 Inhibitor Facilitates Discovery of NPM1 as a Member of the Network” (Molecules, 2025)

How the values were obtained:
Assay in all cases: KiNativ kinome profiling in PANC-1 lysate
Format in all cases: binding
FRK = molecular target: T1, FRK (Homo sapiens, UniProt P42685); conditions: ATP Loop
T1 construct: endogenous in cells; host or cells: PANC-1 lysate
Text: (§1) To assess target engagement and selectivity, we opted to conduct a kinome screen (KiNativ) in PANC-1 cell lysates. This chemical proteomics (chemoproteomics) methodology allows for the evaluation of small-molecule binding to protein kinases in native systems such as cell lysates. KiNativ utilizes a soluble chemical probe comprising ATP linked to biotin through an acyl-phosphate bond. The probe covalently modifies conserved lysine residues found in the ATP binding site of essentially all protein kinases (Figure 2A). To profile a kinase inhibitor, cell lysates are treated with a vehicle control or inhibitor prior to addition of the desthiobiotin ATP probe. The ATP probe occupies the ATP binding site in the kinase, which enables the conserved lysines to be biotinylated. […] The cell lysates are digested with a protease (trypsin), biotinylated peptides are affinity-enriched on streptavidin beads, and the labeled peptides are analyzed by liquid chromatography–tandem MS (Figure 2B). If an inhibitor binds to a kinase, it competes with the ATP, thus resulting in a loss of that kinase-associated peptide signal, allowing for the quantitative measurement of inhibitor binding. Unlike recombinant enzyme assays, KiNativ IC50 values are a direct measure of active site binding instead of enzymatic activity.
(§2) Kinome profiling quantified the activity of 51-106 against >300 kinases in the PANC-1 cells. The results summarized in Figure 2C are the average of duplicate control and duplicate treated samples with 5 μM of 51-106 or DMSO.
(§3) KiNativ assay with 51-106.
(§4) ATP Loop: ATP binding loop
(§5) Activation Loop: Activation loop
(§6) ATP: ATP site in non-canonical kinase (e.g. lipid kinase)
(§7) Protein Kinase Domain: Other lysine within kinase domain, possibly not in ATP binding site
(§8) Other: Labeling of residue outside of the protein kinase domain, possibly not in ATP binding site
(§9) No change. NB = No Binding (≤ 0)
(§10) >100% increase in MS signal (>2 fold increase)
(§11) Data points inhibited […] & not considered significant are left uncolored
(§12) Note: This KiNativ dataset is the result of an analysis of duplicate treated samples and control samples.
(§13) The % changes in MS signals being reported are statistically significant (Student T -test score < 0.04)

ARAF = molecular target: T2, ARAF (Homo sapiens, UniProt P10398); conditions: Lys2
T2 construct: endogenous in cells; host or cells: PANC-1 cell lysate
Text: as §1, §2, §3, §4, §5, §6, §7, §8, §9, §10, §11, §12, §13

PLK1 = molecular target: T3, PLK1 (Homo sapiens, UniProt P53350)
T3 construct: endogenous in cells; host or cells: PANC-1 cell lysate
T3 sequence (P53350 whole entry): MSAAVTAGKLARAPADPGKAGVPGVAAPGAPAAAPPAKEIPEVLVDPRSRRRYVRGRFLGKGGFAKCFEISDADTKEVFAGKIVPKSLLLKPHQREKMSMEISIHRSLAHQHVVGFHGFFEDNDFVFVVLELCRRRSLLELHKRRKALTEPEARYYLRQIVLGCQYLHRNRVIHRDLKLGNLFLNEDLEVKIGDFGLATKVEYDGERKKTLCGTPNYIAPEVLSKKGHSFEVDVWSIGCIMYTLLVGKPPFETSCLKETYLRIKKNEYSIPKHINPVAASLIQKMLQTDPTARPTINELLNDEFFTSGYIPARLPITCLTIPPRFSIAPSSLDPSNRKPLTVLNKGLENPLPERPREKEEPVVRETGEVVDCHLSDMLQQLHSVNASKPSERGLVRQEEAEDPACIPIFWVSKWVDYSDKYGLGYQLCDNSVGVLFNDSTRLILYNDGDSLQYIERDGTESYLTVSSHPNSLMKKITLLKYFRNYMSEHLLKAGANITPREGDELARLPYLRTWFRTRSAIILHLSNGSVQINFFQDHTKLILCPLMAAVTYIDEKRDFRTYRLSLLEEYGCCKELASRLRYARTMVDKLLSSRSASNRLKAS
Text: as §1, §2, §3, §4, §5, §6, §7, §8, §9, §10, §11, §12, §13

MAP4K5 = molecular target: T4, MAP4K5 (Homo sapiens, UniProt Q9Y4K4)
T4 construct: endogenous in cells; host or cells: PANC-1 cell lysate
T4 sequence (Q9Y4K4 whole entry): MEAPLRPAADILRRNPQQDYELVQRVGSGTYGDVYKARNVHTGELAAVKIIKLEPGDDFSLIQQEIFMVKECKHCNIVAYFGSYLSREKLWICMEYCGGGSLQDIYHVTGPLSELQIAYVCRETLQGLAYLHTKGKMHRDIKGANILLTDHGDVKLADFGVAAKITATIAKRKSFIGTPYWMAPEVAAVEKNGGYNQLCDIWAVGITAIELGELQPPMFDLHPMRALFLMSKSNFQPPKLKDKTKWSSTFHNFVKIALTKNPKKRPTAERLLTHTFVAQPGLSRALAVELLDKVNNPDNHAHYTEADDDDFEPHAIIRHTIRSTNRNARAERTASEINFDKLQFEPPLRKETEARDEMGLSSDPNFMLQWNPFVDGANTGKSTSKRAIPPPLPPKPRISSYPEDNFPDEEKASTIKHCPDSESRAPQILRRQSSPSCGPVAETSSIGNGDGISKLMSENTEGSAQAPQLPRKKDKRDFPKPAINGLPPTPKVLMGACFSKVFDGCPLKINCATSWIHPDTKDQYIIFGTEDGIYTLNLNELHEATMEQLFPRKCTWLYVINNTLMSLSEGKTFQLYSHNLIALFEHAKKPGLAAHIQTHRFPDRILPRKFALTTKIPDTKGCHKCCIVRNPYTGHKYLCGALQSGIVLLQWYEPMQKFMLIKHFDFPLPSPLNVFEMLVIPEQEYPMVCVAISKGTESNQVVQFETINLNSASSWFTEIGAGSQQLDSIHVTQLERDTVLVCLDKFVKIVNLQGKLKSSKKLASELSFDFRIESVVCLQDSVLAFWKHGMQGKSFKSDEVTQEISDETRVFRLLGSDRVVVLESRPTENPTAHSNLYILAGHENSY
Text: as §1, §2, §3, §4, §5, §6, §7, §8, §9, §10, §11, §12, §13

KSR1, KSR2 = conditions: 5 µM; ATP Loop; SKNVFYDNGK
Text: as §1, §2, §3, §4, §5, §6, §7, §8, §9, §10, §11, §12, §13

MAPKAPK3 = molecular target: T5, MAPKAPK3 (Homo sapiens, UniProt Q16644)
T5 construct: endogenous in cells; host or cells: PANC-1 cell lysate
T5 sequence (Q16644 whole entry): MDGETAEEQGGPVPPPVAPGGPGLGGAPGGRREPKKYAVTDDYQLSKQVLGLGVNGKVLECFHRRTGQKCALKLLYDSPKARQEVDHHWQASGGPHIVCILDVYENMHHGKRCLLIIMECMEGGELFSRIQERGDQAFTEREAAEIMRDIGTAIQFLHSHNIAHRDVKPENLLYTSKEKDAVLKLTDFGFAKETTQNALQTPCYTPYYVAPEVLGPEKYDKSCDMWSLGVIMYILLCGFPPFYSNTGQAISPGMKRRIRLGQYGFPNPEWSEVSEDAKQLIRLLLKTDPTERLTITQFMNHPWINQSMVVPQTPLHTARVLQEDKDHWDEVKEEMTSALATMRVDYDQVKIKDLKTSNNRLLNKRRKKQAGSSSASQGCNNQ
Text: as §1, §2, §3, §4, §5, §6, §7, §8, §9, §10, §11, §12, §13

TYK2 domain2 = molecular target: T6, TYK2 domain2 (Homo sapiens, UniProt P29597); conditions: ATP Loop
T6 construct: endogenous in cells; host or cells: PANC-1 cell lysate
Text: as §1, §2, §3, §4, §5, §6, §7, §8, §9, §10, §11, §12, §13

GCK = molecular target: T7, GCK (Homo sapiens, UniProt Q12851)
T7 construct: we opted to conduct a kinome screen (KiNativ) in PANC-1 cell lysates; endogenous in cells; host or cells: PANC-1 cell lysate
T7 sequence (Q12851 whole entry): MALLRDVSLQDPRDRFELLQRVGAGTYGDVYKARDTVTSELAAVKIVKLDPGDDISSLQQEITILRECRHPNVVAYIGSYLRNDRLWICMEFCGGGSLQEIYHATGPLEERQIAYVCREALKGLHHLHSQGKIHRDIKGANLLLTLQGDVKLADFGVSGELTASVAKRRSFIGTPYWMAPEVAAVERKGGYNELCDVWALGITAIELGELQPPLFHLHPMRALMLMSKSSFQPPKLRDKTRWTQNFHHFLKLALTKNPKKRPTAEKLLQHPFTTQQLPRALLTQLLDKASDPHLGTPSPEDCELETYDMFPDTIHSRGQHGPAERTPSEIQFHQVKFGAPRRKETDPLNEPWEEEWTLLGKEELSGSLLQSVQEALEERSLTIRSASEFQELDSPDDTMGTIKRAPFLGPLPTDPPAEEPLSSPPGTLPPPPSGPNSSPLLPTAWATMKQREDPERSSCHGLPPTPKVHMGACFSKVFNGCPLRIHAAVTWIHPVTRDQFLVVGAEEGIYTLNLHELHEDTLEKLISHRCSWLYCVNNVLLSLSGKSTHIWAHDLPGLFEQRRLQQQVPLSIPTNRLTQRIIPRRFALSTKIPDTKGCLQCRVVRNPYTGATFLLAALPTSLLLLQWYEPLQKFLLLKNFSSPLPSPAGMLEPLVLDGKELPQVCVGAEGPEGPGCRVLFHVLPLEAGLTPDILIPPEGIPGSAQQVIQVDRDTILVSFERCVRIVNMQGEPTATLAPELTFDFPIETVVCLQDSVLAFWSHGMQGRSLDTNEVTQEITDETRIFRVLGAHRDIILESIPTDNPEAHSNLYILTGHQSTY
Text: as §1, §2, §3, §4, §5, §6, §7, §8, §9, §10, §11, §12, §13

MPSK1 = molecular target: T8, MPSK1 (Homo sapiens, UniProt O75716); conditions: Lys2
T8 construct: endogenous in cells; host or cells: PANC-1
Text: as §1, §2, §3, §4, §5, §6, §7, §8, §9, §10, §11, §12, §13

CSK = molecular target: T9, CSK (Homo sapiens, UniProt P41240)
T9 construct: endogenous in cells; host or cells: PANC-1 cell lysate
Text: as §1, §2, §3, §4, §5, §6, §7, §8, §9, §10, §11, §12, §13

TEC = molecular target: T10, TEC (Homo sapiens, UniProt P42680); conditions: ATP Loop
T10 construct: endogenous in cells; host or cells: PANC-1 cell lysate
Text: as §1, §2, §3, §4, §5, §6, §7, §8, §9, §10, §11, §12, §13

EphB2 = molecular target: T11, EphB2 (Homo sapiens, UniProt P29323); conditions: ATP Loop
T11 construct: endogenous in cells; host or cells: PANC-1 lysate
Text: as §1, §2, §3, §4, §5, §6, §7, §8, §9, §10, §11, §12, §13

MLK1 = molecular target: T12, MLK1 (Homo sapiens, UniProt P80192); conditions: Lys2
T12 construct: endogenous in cells; host or cells: PANC-1
Text: as §1, §2, §3, §4, §5, §6, §7, §8, §9, §10, §11, §12, §13

MAP3K3 = molecular target: T13, MAP3K3 (Homo sapiens, UniProt Q99759); conditions: Lys1
T13 construct: endogenous in cells; host or cells: PANC-1 cell lysate
Text: as §1, §2, §3, §4, §5, §6, §7, §8, §9, §10, §11, §12, §13

SMG1 = molecular target: T14, SMG1 (Homo sapiens, UniProt Q96Q15); conditions: ATP
T14 construct: endogenous in cells; host or cells: PANC-1 cell lysate
Text: as §1, §2, §3, §4, §5, §6, §7, §8, §9, §10, §11, §12, §13

MAP3K15, MAP3K5, MAP3K6 = conditions: 5 µM; Lys1; IAIKEIPER
Text: as §1, §2, §3, §4, §5, §6, §7, §8, §9, §10, §11, §12, §13

PHKg2 = molecular target: T15, PHKg2 (Homo sapiens, UniProt P15735); conditions: Lys1
T15 construct: endogenous in cells; host or cells: PANC-1 cell lysate
Text: as §1, §2, §3, §4, §5, §6, §7, §8, §9, §10, §11, §12, §13

PKR = molecular target: T16, PKR (Homo sapiens, UniProt P19525)
T16 construct: endogenous in cells; host or cells: PANC-1 cell lysate
T16 sequence (P19525 whole entry): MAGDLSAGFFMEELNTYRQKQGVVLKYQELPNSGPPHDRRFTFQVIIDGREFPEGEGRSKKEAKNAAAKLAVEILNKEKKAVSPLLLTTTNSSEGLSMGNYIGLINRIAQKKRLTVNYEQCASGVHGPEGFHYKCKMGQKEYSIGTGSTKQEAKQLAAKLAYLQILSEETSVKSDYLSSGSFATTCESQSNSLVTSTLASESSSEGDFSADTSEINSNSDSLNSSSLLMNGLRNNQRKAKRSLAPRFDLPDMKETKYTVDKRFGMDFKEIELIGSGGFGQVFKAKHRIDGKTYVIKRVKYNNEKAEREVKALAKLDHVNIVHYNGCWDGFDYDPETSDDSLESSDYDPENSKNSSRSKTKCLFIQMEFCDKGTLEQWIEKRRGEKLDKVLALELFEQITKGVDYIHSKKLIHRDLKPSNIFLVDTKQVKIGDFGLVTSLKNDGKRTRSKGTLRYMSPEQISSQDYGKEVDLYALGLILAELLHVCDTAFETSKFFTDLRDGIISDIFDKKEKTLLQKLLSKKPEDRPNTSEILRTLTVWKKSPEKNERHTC
Text: as §1, §2, §3, §4, §5, §6, §7, §8, §9, §10, §11, §12, §13

TNK1 = molecular target: T17, TNK1 (Homo sapiens, UniProt Q13470); conditions: Lys1
T17 construct: endogenous in cells; host or cells: PANC-1 cell lysate
Text: as §1, §2, §3, §4, §5, §6, §7, §8, §9, §10, §11, §12, §13

MST1, MST2 = conditions: 5 µM
Text: as §1, §2, §3, §4, §5, §6, §7, §8, §9, §10, §11, §12, §13

PI4KA, PI4KAP2 = conditions: 5 µM; ATP; SGTPMQSAAKAPYLAK
Text: as §1, §2, §3, §4, §5, §6, §7, §8, §9, §10, §11, §12, §13

PKD2 = molecular target: T18, PKD2 (Homo sapiens, UniProt Q9BZL6); conditions: Lys1
T18 construct: endogenous in cells; host or cells: PANC-1 cell lysate
Text: as §1, §2, §3, §4, §5, §6, §7, §8, §9, §10, §11, §12, §13

MAP3K4 = molecular target: T19, MAP3K4 (Homo sapiens, UniProt Q9Y6R4)
T19 construct: endogenous in cells; host or cells: PANC-1 cell lysate
T19 sequence (Q9Y6R4 whole entry): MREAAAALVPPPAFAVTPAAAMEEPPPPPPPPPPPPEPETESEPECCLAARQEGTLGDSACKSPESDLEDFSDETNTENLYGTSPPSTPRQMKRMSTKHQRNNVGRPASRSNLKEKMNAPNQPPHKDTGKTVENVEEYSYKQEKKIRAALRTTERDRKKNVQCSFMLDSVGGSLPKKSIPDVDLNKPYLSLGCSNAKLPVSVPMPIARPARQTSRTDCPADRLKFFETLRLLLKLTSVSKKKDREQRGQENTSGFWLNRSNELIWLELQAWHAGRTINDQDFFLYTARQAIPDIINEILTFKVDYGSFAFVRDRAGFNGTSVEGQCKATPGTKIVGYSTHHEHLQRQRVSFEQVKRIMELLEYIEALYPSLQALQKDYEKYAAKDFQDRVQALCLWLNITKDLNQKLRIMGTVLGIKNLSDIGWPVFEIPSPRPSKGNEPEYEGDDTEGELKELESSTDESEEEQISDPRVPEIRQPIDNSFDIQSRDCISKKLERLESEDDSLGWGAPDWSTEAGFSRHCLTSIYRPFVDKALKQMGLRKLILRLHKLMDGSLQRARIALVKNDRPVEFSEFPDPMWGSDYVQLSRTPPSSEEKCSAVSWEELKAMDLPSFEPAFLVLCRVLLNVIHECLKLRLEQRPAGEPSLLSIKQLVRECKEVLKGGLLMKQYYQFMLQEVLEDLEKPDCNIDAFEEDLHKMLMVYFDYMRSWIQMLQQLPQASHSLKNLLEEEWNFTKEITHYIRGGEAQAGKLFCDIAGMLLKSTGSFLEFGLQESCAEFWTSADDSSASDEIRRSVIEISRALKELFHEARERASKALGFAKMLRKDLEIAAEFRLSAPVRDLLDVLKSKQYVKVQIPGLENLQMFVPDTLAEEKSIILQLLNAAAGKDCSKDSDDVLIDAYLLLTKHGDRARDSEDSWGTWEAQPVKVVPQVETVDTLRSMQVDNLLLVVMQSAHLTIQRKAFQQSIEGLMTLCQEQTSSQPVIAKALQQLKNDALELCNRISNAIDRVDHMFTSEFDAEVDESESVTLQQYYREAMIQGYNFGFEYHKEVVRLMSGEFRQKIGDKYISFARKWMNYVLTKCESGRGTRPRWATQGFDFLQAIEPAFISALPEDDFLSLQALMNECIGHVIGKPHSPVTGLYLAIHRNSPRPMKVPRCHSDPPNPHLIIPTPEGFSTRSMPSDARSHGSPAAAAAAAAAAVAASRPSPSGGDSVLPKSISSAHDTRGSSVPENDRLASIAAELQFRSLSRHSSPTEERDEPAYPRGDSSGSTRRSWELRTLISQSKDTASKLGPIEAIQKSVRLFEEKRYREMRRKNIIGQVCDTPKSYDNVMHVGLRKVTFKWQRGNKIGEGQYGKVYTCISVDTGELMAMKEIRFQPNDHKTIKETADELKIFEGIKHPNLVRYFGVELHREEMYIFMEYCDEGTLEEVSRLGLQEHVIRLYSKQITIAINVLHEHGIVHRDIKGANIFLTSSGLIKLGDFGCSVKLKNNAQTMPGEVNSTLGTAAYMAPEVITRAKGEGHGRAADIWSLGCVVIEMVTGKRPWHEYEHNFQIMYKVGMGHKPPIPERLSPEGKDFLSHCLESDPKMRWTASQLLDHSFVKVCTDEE
Text: as §1, §2, §3, §4, §5, §6, §7, §8, §9, §10, §11, §12, §13

MSK1 domain1 = molecular target: T20, MSK1 domain1 (Homo sapiens, UniProt O75582); conditions: Lys2
T20 construct: endogenous in cells; host or cells: PANC-1
Text: as §1, §2, §3, §4, §5, §6, §7, §8, §9, §10, §11, §12, §13

JAK1 domain1 = molecular target: T21, JAK1 domain1 (Homo sapiens, UniProt P23458); conditions: ATP Loop
T21 construct: we opted to conduct a kinome screen (KiNativ) in PANC-1 cell lysates; endogenous in cells; host or cells: PANC-1 cell lysate
Text: as §1, §2, §3, §4, §5, §6, §7, §8, §9, §10, §11, §12, §13

## Cn1cc(-c2cnc3ccc(NC(=O)Nc4ccc(F)c(C(F)(F)F)c4)cc3n2)cn1 [51-106, 1-(4-Fluoro-3-(trifluoromethyl)phenyl)-3-(3-(1-methyl-1H-pyrazol-4-yl)quinoxalin-6-yl)urea]
FRK
  inhibition at 5 µM: ≤ 0%
ARAF
  inhibition at 5 µM: ≤ 0%
PLK1; Lys1, CFEISDADTKEVFAGKIVPK
  inhibition at 5 µM: ≤ 0%
PLK1; Lys2, DLKLGNLFLNEDLEVK
  inhibition at 5 µM: 10.9%
MAP4K5; Lys1, NVHTGELAAVKIIK
  inhibition at 5 µM: 6%
MAP4K5; Lys2, DIKGANILLTDHGDVK
  inhibition at 5 µM: ≤ 0%
KSR1, KSR2
  % Inhibition: 8.8%
MAPKAPK3; 5 µM, Lys1, CALKLLYDSPK
  % Inhibition: NB (NB = No Binding (≤ 0))
MAPKAPK3; ATP Loop, […]
  inhibition at 5 µM: ≤ 0%
TYK2 domain2
  inhibition at 5 µM: ≤ 0%
GCK; Lys1, DTVTSELAAVKIVK
  inhibition at 5 µM: 18.3%
GCK; Lys2, DIKGANLLLTLQGDVK
  inhibition at 5 µM: 3.9%
MPSK1
  inhibition at 5 µM: ≤ 0%
CSK; 5 µM, ATP Loop, VSDFGLTKEASSTQDTGKLPVK
  % Inhibition: NB (NB = No Binding (≤ 0))
CSK; Lys1, VAVKCIK
  inhibition at 5 µM: ≤ 0%
TEC
  inhibition at 5 µM: 20.1%
EphB2
  inhibition at 5 µM: ≤ 0%
MLK1
  inhibition at 5 µM: 1.5%
MAP3K3
  inhibition at 5 µM: 11.4%
SMG1; 5 µM, DTVTIHSVGGTITILPTKTKPK
  % Inhibition: NB (NB = No Binding (≤ 0))
SMG1; […]
  inhibition at 5 µM: ≤ 0%
MAP3K15, MAP3K5, MAP3K6
  % Inhibition: NB (NB = No Binding (≤ 0))
PHKg2
  inhibition at 5 µM: ≤ 0%
PKR; ATP Loop, IGDFGLVTSLKNDGKR
  inhibition at 5 µM: ≤ 0%
PKR; Lys2, DLKPSNIFLVDTK
  inhibition at 5 µM: 18.7%
TNK1
  inhibition at 5 µM: 1.9%
MST1, MST2; ATP Loop, LADFGVAGQLTDTMAKR
  % Inhibition: 2.7%
MST1, MST2; Lys2, DIKAGNILLNTEGHAK
  % Inhibition: NB (NB = No Binding (≤ 0))
PI4KA, PI4KAP2
  % Inhibition: 3.0%
PKD2
  inhibition at 5 µM: 10.6%
MAP3K4; Lys1, VYTCISVDTGELMAMKEIR
  inhibition at 5 µM: 8.6%
MAP3K4; Lys2, DIKGANIFLTSSGLIK
  inhibition at 5 µM: 7.1%
MSK1 domain1
  inhibition at 5 µM: ≤ 0%
JAK1 domain1
  inhibition at 5 µM: ≤ 0%
